Where a name gives a salt, the structure may show the parent alone.

Here are results for eleven compounds from patent publication US5342845A, “Indole derivatives and drugs” (priority 1990, dated 1994).

The test system of one data set is mice. In words: Acute toxicity. In kind it is in vivo, male mice. As to conditions: 48 hours. An excerpt: Six-week-old male mice were used.
Data set [1] concerns Bezold-Jarisch reflex (serotonin-induced decrease in heart rate). Description: Inhibition of serotonin-induced Bezold-Jarisch reflex. Format: in vivo, male rats. As to conditions: Rattus norvegicus, iv, 5 min; i.v. 5 min before 0.1 mg/kg i.v. serotonin; dose inhibiting response by 50%. An excerpt:
1. Inhibition of Bezold-Jarisch reflex
The effect of the test compound on the serotonin-induced decrease in heart rate (Bezold-Jarisch reflex) was investigated in male rats, 6-8 weeks of age, with reference to the method of Richardson, et al. (Richardson, B. P., Engel, G., Donatsch, P. and Stadle, P. A.: Identification of serotonin-receptor subtypes and their specific blockade by a new class of drugs; Nature 316, 126-131 (1985)). With the animal immobilized in dorsal position under urethane anesthesia, 0.1 mg/kg of serotonin was administered intravenously before and 5 min after intravenous administration of the test compound and changes in heart rate were recorded. […] The ED50 value was calculated by the least square method.

The subject of data set [2] is cisplatin-induced vomiting. Description: Inhibition of cisplatin-induced vomiting. Format: in vivo, beagle dogs. To be noted: for a/b (Number of animals which vomited/number of animals used): 5 min before cisplatin 2 mg/kg i.v., 6 h observation; for Vomiting frequency: control 12.2 ± 0.8; for Latency to vomiting: control 118.9 ± 5.6. The method, then: 2. Inhibition of cisplatin-induced vomiting
The experiment was performed with reference to the method of Cohen et al. (Cohen, M. L., Bloomquist, W., Gidda, J. S. and Lacefie, W: Comparison of the 5-HT3 receptor antagonist properties of ICS-205-930, GR38032F and Zacopride; J. Pharmacol. Exp. Ther. 248, 197-201 (1989)). In this experiment, beagle dogs of either sex, weighing 8-15 kg, were used. […] The test compounds were administered intravenously 5 minutes before the administration of cisplatin.

Data set [3] has as its system emesis associated with the administration of anticancer drugs. As to conditions: background art; cited from earlier work.
Data set [4] relates to scopolamine-induced deficits of learning and memory. Description: Ameliorative effect on scopolamine-induced deficits of learning and memory (step through-type passive avoidance). Format: in vivo, rats. Here is the method:
3. Ameliorative effect on scopolamine-induced deficits of learning and memory
The experiment was performed in groups of 10 rats. In the intraperitoneal administration study, the test compound was dissolved in physiological saline and administered, and 15 minutes later 0.3 mg/kg of scopolamine was administered intraperitoneally. In the oral administration study, the test compound was suspended in 0.5% methylcellulose (MC) solution and administered and 30 minutes later 0.3 mg/kg of scopolamine was administered intraperitoneally. Thirty minutes after scopolamine administration, training sessions for a step through-type passive avoidance learning task was carried out and 24 hours after this training, trial sessions were started.
The latency to step-through in the trial sessions was determined up to a maximum of 300 seconds and the result was regarded as a learning result. For the test of significant differences from the control group, the Kruscall-Wallis test and the Fisher test were used. The control group received a physiological saline or MC solution.

Another data set deals with T1, muscarine M1 receptors (Rattus norvegicus, UniProt P08482).
T1 construct: receptor membrane prepared from the rat brain; from tissue; host or cells: rat brain (receptor membrane)
T1 sequence (P08482 1-460): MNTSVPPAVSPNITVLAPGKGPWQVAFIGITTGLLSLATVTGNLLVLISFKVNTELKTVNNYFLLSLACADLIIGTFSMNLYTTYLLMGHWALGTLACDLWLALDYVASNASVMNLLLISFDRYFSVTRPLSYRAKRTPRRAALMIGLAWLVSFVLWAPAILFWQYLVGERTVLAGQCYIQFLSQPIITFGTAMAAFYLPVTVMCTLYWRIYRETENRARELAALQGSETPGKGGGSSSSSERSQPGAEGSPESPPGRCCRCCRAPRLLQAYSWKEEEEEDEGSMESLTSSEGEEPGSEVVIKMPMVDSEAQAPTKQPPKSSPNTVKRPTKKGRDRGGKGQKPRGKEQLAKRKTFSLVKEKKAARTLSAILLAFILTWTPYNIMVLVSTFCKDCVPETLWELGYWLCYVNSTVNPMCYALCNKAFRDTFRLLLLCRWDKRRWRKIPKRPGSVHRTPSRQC
Description: Muscarine M1 receptor binding ([^3 H]pirenzepine displacement). To be noted: 1 nM [^3 H]pirenzepine, rat brain membranes, pH 7.4, 25° C., 60 min. The method, then: 4. Effect on muscarine M1 receptors
The muscarine M1 receptor binding assay was carried out according to the method of Watson and Yamamura [Life Sci. 32; 3001-3011 (1983)]. Thus, receptor membrane prepared from the rat brain were incubated with 1 nM [^3 H]pirenzepine in 10 mM Na/K phosphate buffer (pH 7.4) at 25° C. for 60 minutes. As a displacer, 1μM atropine was used.

The mark [5] stands for this setting: oral, 0.03 μg/kg, control 110.1 ± 41.6 (Example 11), 111.9 ± 41.4 (Example 12).
Where [6] appears, read: oral, 0.1 μg/kg, control 110.1 ± 41.6 (Example 11), 111.9 ± 41.4 (Example 12).
The mark [7] stands for this setting: oral, 0.3 μg/kg, control 110.1 ± 41.6 (Example 11), 111.9 ± 41.4 (Example 12).
Setting [8] is: oral, 1 μg/kg, control 110.1 ± 41.6 (Example 11), 111.9 ± 41.4 (Example 12).

For `Cn1c(-c2ccc(Cl)cc2)c(C(=O)NC2CN3CCC2CC3)c2ccccc21` (stereo not shown) [Example 6, N-(1-Azabicyclo[2,2,2]octo-3-yl)-2-(4-chlorophenyl)-1-methylindole-3-carboxamide hydrochloride], in the data set with mice (50 mg/kg intraperitoneal), the “Number of dead animals/number of animals used” value is recorded as 0/4.
As for `Cn1c(-c2ccccc2Cl)c(C(=O)NC2CN3CCC2CC3)c2ccccc21` (stereo not shown) [Example 10, N-(1-Azabicyclo[2,2,2]octo-3-yl)-2-(2-chlorophenyl)-1-methylindole-3-carboxamide hydrochloride], the ED50 – broadly, the dose at which the effect has come halfway, by size or by number of responders – in data set [1] worked out at 0.25 µg/kg.
Consider `CN1C2CCC1CC(OC(=O)c1c[nH]c3ccccc13)C2` (stereo not shown) [ICS-205-930, reference compound], for which, in data set [1], the ED50 was determined as 1.79 µg/kg. In data set [2] (0.03 mg/kg i.v.), the “a/b (Number of animals which vomited/number of animals used)” value was 4/4, the Vomiting frequency worked out at 9.5 ± 1.3 times and the Latency to vomiting was found to be 139.8 ± 13.2 min.
Take `COc1ccccc1-c1c(C(=O)NC2CN3CCC2CC3)c2ccccc2n1C` (stereo not shown) [Example 8, N-(1-Azabicylo[2,2,2]octo-3-yl)-2-(2-methoxyphenyl)-1-methylindole-3-carboxamide hydrochloride]: in data set [1], the ED50 was 0.18 µg/kg.
In the case of `Cn1c(-c2ccccc2)c(C(=O)N[C@@H]2CN3CCC2CC3)c2ccccc21` [Example 3, (S)-(-)-N(1-Azabicyclo[2,2,2]octo-3-yl)-2-phenyl-1-methylindole-3-carboxamide hydrochloride], in data set [2] (0.03 mg/kg i.v.), the “a/b (Number of animals which vomited/number of animals used)” value is on record as 2/2, the Vomiting frequency is 1.0 times and the Latency to vomiting was determined as 215.0 min. Also, the “Number of dead animals/number of animals used” value with mice (30 mg/kg intraperitoneal) was 0/4. In addition, in the data set on mice (50 mg/kg intraperitoneal), the “Number of dead animals/number of animals used” value is 0/4.
In data set [1], `COc1ccc(-c2c(C(=O)N[C@@H]3CN4CCC3CC4)c3ccccc3n2C)cc1` [Example 2, (S)-(-)-N-(1-Azabicyclo[2,2,2]octo-3-yl)-2-(4-methoxyphenyl)-1-methylindole-3-carboxamide hydrochloride] gave an ED50 of 0.3 µg/kg. Moreover, in data set [2] (0.03 mg/kg i.v.), the “a/b (Number of animals which vomited/number of animals used)” value is recorded as 2/2, the Vomiting frequency stood at 6.5 times and the Latency to vomiting came to 192.0 min. Further, the “Number of dead animals/number of animals used” value in the data set on mice (30 mg/kg intraperitoneal) is 0/4. Also, the “Number of dead animals/number of animals used” value in the data set with mice (50 mg/kg intraperitoneal) is listed as 0/4.
In the case of `Cc1nccn1CC1CCc2c(c3ccccc3n2C)C1=O` (stereo not shown) [GR-38032F, ondansetron], in data set [3], the “anxiolytic and antipsychotic actions (in words)” value is “exhibit excellent anxiolytic and antipsychotic actions”; the “effect on emesis associated with anticancer drugs (in words)” value is given as “markedly inhibit the emesis associated with the administration of anticancer drugs”.
On to `Cn1c(-c2ccccc2Cl)c(C(=O)N[C@@H]2CN3CCC2CC3)c2ccccc21` [Example 12, (S)-(31)-N-(1-Azabicyclo[2,2,2]octo-3-yl)-2-(2-chlorophenyl)-1-methylindole-3-carboxamide hydrochloride], for which the “Latency (to step-through)” value in data set [4] (intraperitoneal, 0.1 μg/kg, control 103.8 ± 43.1) was 170.5 ± 43.3 s; in data set [4] (intraperitoneal, 0.3 μg/kg, control 103.8 ± 43.1), 183.0 ± 39.6 s; in data set [4] (intraperitoneal, 1 μg/kg, control 103.8 ± 43.1), 270.7 ± 29.3 s; in data set [4] (intraperitoneal, 3 μg/kg, control 103.8 ± 43.1), 256.3 ± 30.4 s; in data set [4] (intraperitoneal, 10 μg/kg, control 103.8 ± 43.1), 163.8 ± 45.6 s; in data set [4] (intraperitoneal, 30 μg/kg, control 103.8 ± 43.1), 127.8 ± 46.9 s. The “Latency (to step-through)” value in data set [4] (setting [5]) is 108.5 ± 42.0 s; in data set [4] (setting [6]), 246.3 ± 35.8 s; in data set [4] (setting [7]) it was 247.3 ± 35.2 s; in data set [4] (setting [8]), 105.5 ± 42.6 s; in data set [4] (oral, 3 μg/kg, control 111.9 ± 41.4), 139.2 ± 44.0 s. In data set [1], this compound gave an ED50 of 0.2 µg/kg. The IC50 (as a rule, the concentration that gives 50% inhibition) at muscarine M1 receptors was determined as 1200 nM. Moreover, the “a/b (Number of animals which vomited/number of animals used)” value in data set [2] (0.001 mg/kg i.v.) and in data set [2] (0.01 mg/kg i.v.) was 4/4 each time. In addition, the Vomiting frequency is 7.0 ± 1.7 times in data set [2] (0.001 mg/kg i.v.) and 3.8 ± 0.5 times in data set [2] (0.01 mg/kg i.v.). Moreover, the Latency to vomiting in data set [2] (0.001 mg/kg i.v.) is 140.5 ± 13.6 min; in data set [2] (0.01 mg/kg i.v.), 173.8 ± 25.3 min.
Turning to `COc1ccc(-c2c(C(=O)NC3CN4CCC3CC4)c3ccccc3n2C)cc1` (stereo not shown) [Example 4, N-(1-Azabicyclo[2,2,21octo-3-yl)-2-(4-methoxyphenyl)-1-methylindole-3-carboxamide hydrochloride], the “Number of dead animals/number of animals used” value with mice (30 mg/kg intraperitoneal) and with mice (50 mg/kg intraperitoneal) was 0/4 throughout.
Consider `Cn1c(-c2ccc(Cl)cc2)c(C(=O)N[C@@H]2CN3CCC2CC3)c2ccccc21` [Example 7, (S)-(-)-N-(1-Azabicyclo[2,2,2]octo-3-yl)-2-(4-chlorophenyl)-1-methylindole-3-carboxamide hydrochloride], for which the 50% effect level in data set [1] (ED50) was put at a dose of 0.28 µg/kg. Besides, in data set [2] (0.03 mg/kg i.v.), the “a/b (Number of animals which vomited/number of animals used)” value is listed as 4/4, the Vomiting frequency is 2.3 ± 0.6 times and the Latency to vomiting worked out at 206.8 ± 15.7 min. Further, in the data set on mice (50 mg/kg intraperitoneal), the “Number of dead animals/number of animals used” value was 0/4.
On to `COc1ccccc1-c1c(C(=O)N[C@@H]2CN3CCC2CC3)c2ccccc2n1C` [Example 11, (S)-(-)-N-(1-Azabicyclo[2,2,2]octo-3-yl)-2-(2-methoxyphenyl)-1-methylindole-3carboxamide hydrochloride], for which the “Latency (to step-through)” value in data set [4] (setting [5]) amounted to 214.1 ± 43.8 s; in data set [4] (setting [6]), 246.5 ± 35.7 s; in data set [4] (setting [7]), 246.7 ± 35.6 s; in data set [4] (setting [8]), 162.0 ± 46.1 s. Besides, in data set [1], the 50% effect level (ED50) was put at a dose of 0.14 µg/kg. Further, the IC50 on muscarine M1 receptors worked out at 4600 nM. In addition, the “a/b (Number of animals which vomited/number of animals used)” value in data set [2] (0.01 mg/kg i.v.) is 4/4. Further, the Vomiting frequency in data set [2] (0.01 mg/kg i.v.) amounted to 6.8 ± 1.9 times. This compound also showed a Latency to vomiting in data set [2] (0.01 mg/kg i.v.) of 149.5 ± 5.4 min.
